The source made the active and inactive calls. The rule behind the calls is not given here.

Series [1] can be described thus: Stability of the compound under neutral conditions. The class given is physicochemical.
The test system of series [2] is RAW264.7. As to the kind of experiment: Inhibition of NF-kappaB activation in LPS-stimulated mouse RAW264.7 cells assessed as DNA binding using 32P-labeled oligonucleotide with the high affinity site 5'-AGTTGAGGGGACTTTCCCAGGC-3' at 3 ug/mL after 30 mins by EMSA. The class given is cell-based. (In general: A gel shift assay detects complexes by their altered migration in electrophoresis.)

Series [3] relates to RAW264.7. The series can be described thus: Cytotoxicity against mouse RAW264.7 cells at 10 ug/mL after 24 hrs by MTT assay. The class given is cell-based. Particulars: raw264.7, 24 h.
The test system of series [4] is RAW264.7. The series can be described thus: Inhibition of LPS-induced nitric oxide production in mouse RAW264.7 cells preincubated for 1 hr prior LPS stimulation measured after 24 hrs by Griess reaction. In kind it is functional, cell-based. On the technique in general: Nitrite, measured by Griess reagent, commonly stands in for NO production.
The nature of series [5]: Stability of the compound in DMSO for 4 weeks. The class given is physicochemical. Conditions: 672 h.
Series [6] concerns Transcription factor p65 (Homo sapiens), Q04206 [C38S]. The series can be described thus: Binding affinity to recombinant NF-kappaB transcription factor p65 subunit C38S mutant at 4 equiv mol concentration after 1 hr by MALDI-TOF MS analysis.
Series [7] has as its system RAW264.7. As to the kind of experiment: Inhibition of LPS-induced nitric oxide production in mouse RAW264.7 cells at 100 ug/mL preincubated for 1 hr prior LPS stimulation measured after 24 hrs by Griess reaction relative to (-)-DHMEQ. The class given is functional, cell-based.
In series [8] the target is Transcription factor p65 (Homo sapiens) (UniProt Q04206). The series can be described thus: Binding affinity to recombinant NF-kappaB transcription factor p65 subunit at 4 equiv mol concentration after 1 hr by MALDI-TOF MS analysis.
Chain of Transcription factor p65 (Homo sapiens) (Q04206 whole entry): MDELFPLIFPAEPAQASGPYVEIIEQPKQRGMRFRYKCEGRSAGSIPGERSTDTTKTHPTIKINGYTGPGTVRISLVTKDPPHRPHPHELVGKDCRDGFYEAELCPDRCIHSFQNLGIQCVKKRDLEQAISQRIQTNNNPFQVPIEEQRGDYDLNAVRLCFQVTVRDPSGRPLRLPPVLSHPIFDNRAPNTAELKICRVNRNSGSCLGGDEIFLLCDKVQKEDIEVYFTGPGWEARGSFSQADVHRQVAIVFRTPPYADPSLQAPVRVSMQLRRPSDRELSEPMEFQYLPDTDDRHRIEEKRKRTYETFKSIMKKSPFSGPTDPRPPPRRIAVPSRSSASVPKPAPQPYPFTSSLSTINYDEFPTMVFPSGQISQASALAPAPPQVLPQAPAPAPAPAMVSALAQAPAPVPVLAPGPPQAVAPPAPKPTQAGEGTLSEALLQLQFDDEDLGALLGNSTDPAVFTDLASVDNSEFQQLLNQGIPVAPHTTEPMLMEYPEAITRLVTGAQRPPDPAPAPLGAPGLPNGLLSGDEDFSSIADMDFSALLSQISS

Chain of Transcription factor p65 (Homo sapiens), Q04206 [C38S] (Q04206 whole entry C38S): as the sequence (Q04206 whole entry) above, with C38S counted along it

With `O=C(NC1=CC(=O)[C@H]2O[C@H]2[C@H]1O)c1ccccc1O` [DEHYDROXYMETHYLEPOXYQUINOMICIN], the Stability entry in series [1] is “Stable”.

As for `C=CCOc1ccccc1C(=O)NC1=CC(=O)[C@H]2O[C@H]2[C@H]1O` (racemic), the inhibition entry in series [2] is “Active”. In addition, the Activity result in series [3] is “Non-toxic”. In series [4], the inhibition entry is “Dose-dependent effect”.

As for `O=C(/C=C/COc1ccccc1C(=O)NC1=CC(=O)[C@H]2O[C@H]2[C@H]1O)NCCOCCOCCNC(=O)CCCC[C@@H]1SC[C@@H]2NC(=O)N[C@@H]21` (mixture of isomers), the Stability result in series [5] was “Stable”. For the same compound, the result in series [6] was inactive. Moreover, the inhibition entry in series [7] was “inactive”. Besides, the outcome in series [8] was Active.

For the origin of these results see ChEMBL document CHEMBL1914288, “Design and synthesis of biotinylated DHMEQ for direct identification of its target NF-κB components” (Bioorg Med Chem Lett, 2011).
